From a melting point compilation (Tetko et al.; mined from patent text by program, amines drawn as free bases though some values may be those of a salt)

Compound | melting point [°C]
CCCCN(C)C(=O)CS(=O)CCCCCOc1ccc(C2=C(c3ccccc3)CCCc3ccccc32)cc1 (configuration not stated) | 120 to 121
CN(C)C(=S)Oc1ccc(C(F)(F)F)cc1C(=O)c1ccc(C#N)cc1 | 142
O=C(Nc1ccccc1NS(=O)(=O)c1ccc(Cl)cc1)c1ccccc1 | 191 to 192
CC(C)CC(NC(=O)CNc1ccc(Cl)cc1)C(=O)NCC#N (configuration not stated) | 131 to 134
N#Cc1ccc(N(c2ccccc2)n2ccnc2)cc1 | 162
Cc1noc(NS(=O)(=O)c2ccccc2-c2ccc(-c3ccno3)cc2)c1C | 85 to 90
CCCCCC(O)C#CCCCCCCC#Cc1ccc(O)c(O)c1 (configuration not stated) | 46 to 48
COc1ccc(C(O)CNCc2cccc(OC)c2OC)cc1OC (configuration not stated) | 96 to 97
CC(Cl)(Cl)C(NC(=O)c1cccc(Cl)c1)Nc1c(Nc2cccnc2)c(=O)c1=O (configuration not stated) | 202 to 204
O=C(Nc1ccc(Cl)cc1)C(Oc1cccc2ccccc12)C1CC1 (configuration not stated) | 204 to 206
c1cnc2ccc(Cn3nnc4ccc(-c5ccc(N6CCOCC6)nc5)nc43)cc2c1 | 183 to 185
O=C1Nc2ccccc2N2CCN(CCc3ccccn3)CC12 (configuration not stated) | 167 to 169
CC(C)(Oc1ccc(OCCOc2cc(C(C)(C)C)c(O)c(C(C)(C)C)c2)cc1)C(=O)O | 124
O=C1Nc2ccc(C(F)(C(F)(F)F)C(F)(F)F)cc2CN1NCc1cccnc1 | 159 to 161
O=C(NC1CCN(C(=O)OCCC2(C(=O)NCC(F)(F)F)c3ccccc3-c3ccccc32)CC1)c1ccccc1Oc1ccccc1 | 68 to 73
CCCc1c(C(=O)C(C)C)c2ccc(C(=O)OC)cc2n1Cc1ccccc1C | 99 to 102
O=c1n(-c2ccccc2)nc2n1-c1ccccc1Oc1ccccc1-2 | 176 to 177
COc1cc2c(cc1OC)C(Oc1ccc(C(F)(F)F)cc1)CN(CC#N)CC2 (configuration not stated) | 93 to 94
CCOC(=O)C(NC(=O)CCNC(=O)CO)C(=O)OCC | 94.5 to 96
Cc1ccccc1SN(C(=O)NC(=O)c1ccccc1Cl)c1ccc(OC(F)(F)F)cc1 | 79 to 80
COc1cc(OC)c(-c2cc3ccccc3n2C)cc1C=CC(=O)c1ccc(C(=O)O)cc1 | 157 to 160
CCN(CC)C(=O)CCCN(C(=O)Nc1cc(OC)cc(C(C)(C)C)c1O)c1ccccc1 | 131 to 133
C=C(C)C(=O)Oc1cccc(-c2cccc(OC(=O)C(=C)C)c2)c1 | 70
Cc1nnc2n1-c1ccc(I)cc1C(c1ccccc1F)=NC2 | 235 to 238
CC(C)OCCn1c(C2CCN(CCc3ccc(C(C)(C)C)cc3)CC2)nc2ccccc21 | 115 to 117
Cc1c(Cc2ccncc2)nnc(Nc2cccc(Cl)c2)c1C | 164 to 167
FC(F)(F)c1cc(-c2ccc(Br)cc2)nc2c(-c3ccncc3)cnn12 | 289

Compound | melting point [°C]
C=Cc1c(N=C2NCCN2)cccc1OC | 126
CC1(C)CC(N2CCCCCC2=O)CC(C)(C)N1O | 212 to 215
C=CS(=O)(=O)CCN1CCC(N2N=C(c3ccc(OC)c(OC)c3)[C@H]3CC=CC[C@H]3C2=O)CC1 | 165 to 166
CN1C(=O)N(c2cc(Cl)nc(Cl)c2)C(=O)/C1=C\c1ccc(C#N)cc1 | 230
CCCCCCCC(=O)N(C)Cc1cccc(-c2ccc(CCC(=O)O)s2)c1 | 67 to 68
CCCCCC1=NNC(=O)CC1 | 40
CCOC(=O)c1c(CC(=O)O)n(-c2ccc(OC(C)C)cc2)c2ccc(Oc3nc(C)ccc3C#N)cc12 | 179
C#Cc1cnn2c(C3CC3)cc(-c3ccc(Cl)cc3)nc12 | 181 to 182
Cn1c(CNCC2CCOCC2)cc2cc(NC(=O)c3ccc(OCC4CCOC4)cc3)ccc21 (configuration not stated) | 153 to 154
Nc1ccc(C=Cc2nc3ccccc3nc2C=Cc2ccc(N)cc2)cc1 | 227 to 228
N#Cc1cnc2cc(I)ccc2c1Cl | 165 to 167
CN1CCN(c2nc(-c3ccccc3)c3ccccc3n2)CC1 | 101 to 122
FC(F)(F)C(F)(F)C(F)(F)c1nc(-c2ccc(OCCCn3ccnc3)cc2)no1 | 60 to 60.5
CC[C@H]1[C@H](O)CC(=O)N1c1ccc(C#N)c(Cl)c1C | 142 to 146
CCOC(=O)C(=CN)C(=O)c1cc(F)c(Cl)c([N+](=O)[O-])c1Cl | 113 to 114
Cc1ccc(-c2[nH]c3ccccc3c(=O)c2Cc2ccncc2)cc1 | 264 to 266
CC(C)CN(CC(=O)O)S(=O)(=O)c1ccc(N2CCC(c3ccccc3)CC2)cc1 | 140 to 143
OCc1nccc2c1CCCC2 | 81 to 82
N#Cc1ccc(OCCCCCCOc2cccc(-c3cc4ccc(C#N)cc4o3)c2)cc1 | 125 to 127
CCCCCNC(=O)[C@@H]1CCCN1C(=O)[C@@H](N)CC | 140 to 141
O=CNCC(O)(Cn1cncn1)c1ccc(Cl)cc1Cl (configuration not stated) | 157
CCOC(=O)c1cc2cc(OCCCS(C)(=O)=O)cc(NS(=O)(=O)c3ccccn3)c2[nH]1 | 194 to 195
CSc1ncc(S(=O)(=O)NC(=O)NC(C)C)c(Nc2cccc(C)c2)n1 | 160
Cc1cc(C2=Nn3cc(C(F)(F)F)nc3SC2c2ccc(F)cc2)cc2c1OCC(=O)N2 (configuration not stated) | 136 to 138
c1cnc(-c2cc(C3CC3)on2)cn1 | 86 to 91
O=C(NC1CCC(CCN2CCN(c3nccc4c3CCO4)CC2)CC1)c1ccc(N2CCS(=O)(=O)CC2)cc1 (configuration not stated) | 262
NC(=O)c1ncn2c1CN=C(c1ccccc1F)c1cc(Cl)ccc1-2 | 292 to 294

Continued, values first:

melting point [°C] | Compound
55 to 57 | Nc1ccc(Sc2ccc(Cl)cc2)nc1
159 to 160 | CCCOCCOc1ccc(Oc2ccc3c(c2)C=C(C(=O)Nc2ccc(CN(C)C4CCOCC4)cc2)CCS3(=O)=O)cc1OCC
136 to 140 | Clc1cccc(-c2nc(-c3ccccn3)no2)c1
104 to 107 | COc1ccc(N2CCN(c3ccc(OC)nc3-c3ccc(OCC(F)(F)F)cc3)CC2)cc1
297 to 299 | O=C(NCc1ccc(Cl)cc1)c1cnc2ccc(I)cc2c1O
216 to 220 | COc1cc(C(=O)NNC(=O)c2occ(-c3ccccc3)c2-c2ccccc2)ccc1O
200 to 203 | O=C1Nc2cc(C(F)(F)F)cc(C(F)(F)F)c2C1=O
130 to 131 | Nc1cc(CCC(=O)Nc2ccc(Cl)cc2Cl)ccc1O
133 to 134 | NC1=C(C(=O)c2cccs2)C2=C(CCC2)S1=O (configuration not stated)
203 to 206 | CC(C)(C)c1cc(C=Cc2ccccc2NC(=O)NC2CCCCCC2)cc(C(C)(C)C)c1O
205 to 208 | COC(=O)c1ccc2c(nc(C)n2C)c1C(=O)OC
47 | Cc1cc(C)c2c(c1C)OC(C)(C)C2
172 to 174 | Cc1c(Cl)nn2cc(-c3ccc(F)cc3)nc2c1C
174 to 178 | CC(C)(C)c1cc(C(=O)OCCN(CCO)C(=O)c2cc(C(C)(C)C)c(O)c(C(C)(C)C)c2)cc(C(C)(C)C)c1O
162 to 163 | CCN1C(=O)C(C(=O)c2ccco2)c2cc(Cl)cnc21 (configuration not stated)
148 to 150 | Cc1noc([C@@H](Cc2ccccc2)NC(=O)[C@@H](Cc2ccc3ccccc3c2)NC(=O)OC(C)(C)C)n1
154 | COc1ccc(C(=O)c2cc(-c3ccc(S(C)(=O)=O)cc3)c(N3CCOCC3)s2)cc1
> 260 | CC(=O)N1c2ccccc2C[C@H]1C(N)=O
232 to 234 | O=C1CNC(=O)N1c1ccncc1
219 to 221 | CCCc1nc2c(N)nc3ccccc3c2n1CC(C)(C)C(N)=O
225 to 226 | CCCCCCOc1ccc(NS(=O)(=O)c2ccc(N3CCNC3=O)cc2)cc1
135 | CC(C)C(N)CN1CCC(Nc2nc3ccccc3n2Cc2ccc3ccccc3n2)CC1 (configuration not stated)

melting point [°C] | Compound
201 to 202 | CC(C)(C)OC(=O)C(C)(C)ON=C(C(=O)O)c1cccs1
269 to 271 | O=C1NCc2cccnc2N1c1ccccc1
156 to 158 | O=C1Nc2ccc(C(F)(F)F)cc2C1(O)c1cc(Cl)ccc1O (configuration not stated)
212 to 214 | O=C(Nc1ccc(C(F)(F)F)cc1)N1CC(c2ccccc2)C(c2ccc(Cl)cc2)N1 (configuration not stated)
178 to 180 | O=C(CN1CCC(Cc2ccc(F)cc2)CC1)Nc1ccc2c(c1)CC(=O)N2
41 to 42 | CCCCCCCCCCC(C)(C)C(=O)NC1CCCNC(=O)C1 (configuration not stated)
143 to 144 | O=C(NCC(F)(F)F)C1(CCCCSc2nccs2)c2ccccc2-c2ccccc21
185 to 188 | C=COc1ccccc1S(=O)(=O)NC(=O)c1ccc(Cc2cn(C)c3ccc(NC(=O)OC4CCCC4)cc23)c(OC)c1
> 270 | CCCC(=O)Nc1ccc(CCn2c(=O)n(CCC)c(=O)c3[nH]c(C4CCCC4)nc32)cc1
118 to 120 | N#Cc1cn(-c2c(Cl)cc(C(F)(F)F)cc2Cl)cc1I
172 | CC(=O)OCC1OC(n2nnnc2Cl)C(OC(C)=O)C(OC(C)=O)C1OC(C)=O (configuration not stated)
234 to 235 | CN(C1CCN(CC(C)(C)O)CC1)S(=O)(=O)c1ccc(Nc2nccc(Nc3ccc(F)c(F)c3)n2)cc1
184 | N[C@@H]1CCCN([C@@H]2Cc3ccccc3[C@H]2Oc2cc3c(cc2Cl)NC(=O)CC3)C1
66 to 68 | CCC1(CC)C(=O)N(C(C)(C)C)CC(C)(C)N1OC(C)c1ccc(CCl)cc1 (configuration not stated)
104 | COc1ccc(N)c(S)c1
82 | CCCCCCC1C(=O)NC(C(=O)SCCNC(C)=O)(C(O)C2C=CCCC2)C1(C)O (configuration not stated)
116 to 117 | CC(=O)NCC1CN(c2ccc(N(C)C=O)c(F)c2)C(=O)O1 (configuration not stated)
160 to 161 | O=[N+]([O-])c1cnc2ccc(Br)cn12
48 | CCOC(=O)CCc1ccccc1CNC(=O)C1Cc2ccccc2N1S(=O)(=O)c1ccc(-c2cccc(C(F)(F)F)c2)cc1 (configuration not stated)
123 to 125 | CC(=O)N(O)C(C)c1csc2ccccc12 (configuration not stated)
212 to 215 | CC(C)Nc1nc2c(F)c(Cl)c(Cl)cc2[nH]1
